# Laboratory results as given in paper PMC7026418, “The kinase polypharmacology landscape of clinical PARP inhibitors” (Scientific Reports, 2020).
# Like-named read-outs stand apart in the source and are kept apart here.
# How the values were obtained:
# Assay in all cases: biochemical
# Parameters in all cases: DiscoveRx KINOMEscan active site-directed competition binding; percent of control kinase bound to immobilised ligand
# [1] = target: T1, FAK (Homo sapiens, UniProt Q05397)
# T1 construct: gene PTK2
# T1 sequence (Q05397 whole entry): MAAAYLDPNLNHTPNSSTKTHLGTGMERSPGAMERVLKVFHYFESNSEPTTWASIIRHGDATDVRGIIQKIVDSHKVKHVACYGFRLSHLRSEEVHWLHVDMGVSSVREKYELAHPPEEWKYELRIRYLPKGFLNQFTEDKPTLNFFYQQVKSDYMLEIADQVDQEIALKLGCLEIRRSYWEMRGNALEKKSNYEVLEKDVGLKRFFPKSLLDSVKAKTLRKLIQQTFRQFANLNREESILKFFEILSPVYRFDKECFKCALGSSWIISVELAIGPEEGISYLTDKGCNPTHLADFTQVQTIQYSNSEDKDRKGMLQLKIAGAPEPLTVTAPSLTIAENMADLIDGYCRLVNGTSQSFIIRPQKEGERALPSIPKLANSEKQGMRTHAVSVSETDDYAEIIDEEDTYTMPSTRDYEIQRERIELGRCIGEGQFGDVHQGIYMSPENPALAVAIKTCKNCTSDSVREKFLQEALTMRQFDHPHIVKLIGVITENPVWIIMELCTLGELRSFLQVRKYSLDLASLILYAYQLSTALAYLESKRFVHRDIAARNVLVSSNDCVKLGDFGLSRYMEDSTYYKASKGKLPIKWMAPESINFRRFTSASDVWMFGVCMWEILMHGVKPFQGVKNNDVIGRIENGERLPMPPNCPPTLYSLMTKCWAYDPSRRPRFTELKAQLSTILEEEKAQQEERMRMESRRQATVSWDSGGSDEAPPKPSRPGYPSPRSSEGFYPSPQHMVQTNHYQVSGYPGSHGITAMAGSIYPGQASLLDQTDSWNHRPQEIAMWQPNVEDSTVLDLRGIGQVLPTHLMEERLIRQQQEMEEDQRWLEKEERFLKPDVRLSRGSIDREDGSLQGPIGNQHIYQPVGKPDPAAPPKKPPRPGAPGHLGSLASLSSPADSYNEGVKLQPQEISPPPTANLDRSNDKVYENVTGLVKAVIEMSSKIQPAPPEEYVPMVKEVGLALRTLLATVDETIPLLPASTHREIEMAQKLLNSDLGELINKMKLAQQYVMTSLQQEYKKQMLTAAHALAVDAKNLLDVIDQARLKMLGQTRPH
# [2] = target: T2, MAP4K3 (Homo sapiens, UniProt Q8IVH8)
# T2 sequence (Q8IVH8 1-894): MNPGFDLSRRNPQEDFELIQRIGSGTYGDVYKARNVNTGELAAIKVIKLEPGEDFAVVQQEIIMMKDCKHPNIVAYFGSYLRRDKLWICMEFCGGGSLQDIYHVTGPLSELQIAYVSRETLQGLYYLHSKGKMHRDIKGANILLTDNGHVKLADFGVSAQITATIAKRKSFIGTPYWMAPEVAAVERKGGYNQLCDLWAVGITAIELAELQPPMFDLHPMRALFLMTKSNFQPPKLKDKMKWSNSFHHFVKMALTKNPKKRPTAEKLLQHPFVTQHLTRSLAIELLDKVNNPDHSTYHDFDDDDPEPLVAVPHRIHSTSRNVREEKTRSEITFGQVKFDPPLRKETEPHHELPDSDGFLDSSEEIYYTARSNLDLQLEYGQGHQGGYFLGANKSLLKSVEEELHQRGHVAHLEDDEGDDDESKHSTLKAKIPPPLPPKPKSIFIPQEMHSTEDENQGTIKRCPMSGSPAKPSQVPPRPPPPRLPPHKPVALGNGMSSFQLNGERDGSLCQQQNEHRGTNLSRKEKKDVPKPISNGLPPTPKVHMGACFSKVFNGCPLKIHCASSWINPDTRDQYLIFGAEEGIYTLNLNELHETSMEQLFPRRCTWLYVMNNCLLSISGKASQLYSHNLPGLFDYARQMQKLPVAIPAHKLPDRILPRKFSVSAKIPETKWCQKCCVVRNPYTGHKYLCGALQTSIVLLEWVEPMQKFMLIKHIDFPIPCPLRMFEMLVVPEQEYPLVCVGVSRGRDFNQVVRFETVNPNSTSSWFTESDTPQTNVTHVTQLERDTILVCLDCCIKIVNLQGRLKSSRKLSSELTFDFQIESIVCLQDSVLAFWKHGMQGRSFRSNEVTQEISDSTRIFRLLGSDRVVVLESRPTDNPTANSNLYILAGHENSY
# [3] = target: T3, TSSK3 (Homo sapiens, UniProt Q96PN8)
# T3 sequence (Q96PN8 1-268): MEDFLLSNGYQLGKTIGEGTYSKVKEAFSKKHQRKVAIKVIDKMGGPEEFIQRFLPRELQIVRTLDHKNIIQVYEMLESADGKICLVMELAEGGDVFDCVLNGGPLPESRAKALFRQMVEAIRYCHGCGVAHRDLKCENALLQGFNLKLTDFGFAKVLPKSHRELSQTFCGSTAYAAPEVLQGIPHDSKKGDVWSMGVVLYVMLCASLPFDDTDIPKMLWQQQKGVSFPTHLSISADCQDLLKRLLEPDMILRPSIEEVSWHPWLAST
# [4] = target: T4, FLT3(ITD) (Homo sapiens, UniProt P36888, ITD)
# T4 sequence (P36888 564-993): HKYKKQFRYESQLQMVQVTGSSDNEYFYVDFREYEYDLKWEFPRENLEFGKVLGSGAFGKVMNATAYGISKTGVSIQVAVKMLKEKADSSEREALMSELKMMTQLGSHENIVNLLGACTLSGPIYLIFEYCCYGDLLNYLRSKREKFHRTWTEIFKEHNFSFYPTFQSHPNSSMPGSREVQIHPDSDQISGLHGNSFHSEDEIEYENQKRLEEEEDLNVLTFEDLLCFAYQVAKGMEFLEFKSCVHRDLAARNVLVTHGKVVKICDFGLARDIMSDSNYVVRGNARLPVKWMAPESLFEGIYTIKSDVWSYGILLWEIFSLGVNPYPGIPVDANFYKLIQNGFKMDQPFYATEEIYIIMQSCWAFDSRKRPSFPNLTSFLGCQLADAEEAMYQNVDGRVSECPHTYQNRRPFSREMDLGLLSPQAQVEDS
# [5] = target: T5, CTK (Homo sapiens, UniProt P42679)
# T5 construct: gene MATK
# T5 sequence (P42679 1-507): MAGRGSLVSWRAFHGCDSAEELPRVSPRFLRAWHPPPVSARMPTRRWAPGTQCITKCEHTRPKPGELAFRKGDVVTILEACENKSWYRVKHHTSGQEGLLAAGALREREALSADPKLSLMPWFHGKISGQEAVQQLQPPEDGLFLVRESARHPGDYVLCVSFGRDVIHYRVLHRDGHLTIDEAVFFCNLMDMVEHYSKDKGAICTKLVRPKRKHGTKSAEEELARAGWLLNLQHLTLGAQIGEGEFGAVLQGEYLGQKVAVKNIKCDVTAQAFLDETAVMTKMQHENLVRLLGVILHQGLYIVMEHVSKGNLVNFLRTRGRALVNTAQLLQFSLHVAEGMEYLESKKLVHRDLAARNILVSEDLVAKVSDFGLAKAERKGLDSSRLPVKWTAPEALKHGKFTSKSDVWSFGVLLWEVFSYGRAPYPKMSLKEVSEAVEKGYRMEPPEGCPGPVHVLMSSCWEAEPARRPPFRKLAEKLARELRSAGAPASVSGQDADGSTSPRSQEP
# [6] = target: EGFR(L747-S752del, P753S) (Homo sapiens, UniProt P00533, DEL747-752/P753S)
# EGFR(L747-S752del, P753S), sequence (P00533 with tags, fused parts or gaps DEL747-752/P753S): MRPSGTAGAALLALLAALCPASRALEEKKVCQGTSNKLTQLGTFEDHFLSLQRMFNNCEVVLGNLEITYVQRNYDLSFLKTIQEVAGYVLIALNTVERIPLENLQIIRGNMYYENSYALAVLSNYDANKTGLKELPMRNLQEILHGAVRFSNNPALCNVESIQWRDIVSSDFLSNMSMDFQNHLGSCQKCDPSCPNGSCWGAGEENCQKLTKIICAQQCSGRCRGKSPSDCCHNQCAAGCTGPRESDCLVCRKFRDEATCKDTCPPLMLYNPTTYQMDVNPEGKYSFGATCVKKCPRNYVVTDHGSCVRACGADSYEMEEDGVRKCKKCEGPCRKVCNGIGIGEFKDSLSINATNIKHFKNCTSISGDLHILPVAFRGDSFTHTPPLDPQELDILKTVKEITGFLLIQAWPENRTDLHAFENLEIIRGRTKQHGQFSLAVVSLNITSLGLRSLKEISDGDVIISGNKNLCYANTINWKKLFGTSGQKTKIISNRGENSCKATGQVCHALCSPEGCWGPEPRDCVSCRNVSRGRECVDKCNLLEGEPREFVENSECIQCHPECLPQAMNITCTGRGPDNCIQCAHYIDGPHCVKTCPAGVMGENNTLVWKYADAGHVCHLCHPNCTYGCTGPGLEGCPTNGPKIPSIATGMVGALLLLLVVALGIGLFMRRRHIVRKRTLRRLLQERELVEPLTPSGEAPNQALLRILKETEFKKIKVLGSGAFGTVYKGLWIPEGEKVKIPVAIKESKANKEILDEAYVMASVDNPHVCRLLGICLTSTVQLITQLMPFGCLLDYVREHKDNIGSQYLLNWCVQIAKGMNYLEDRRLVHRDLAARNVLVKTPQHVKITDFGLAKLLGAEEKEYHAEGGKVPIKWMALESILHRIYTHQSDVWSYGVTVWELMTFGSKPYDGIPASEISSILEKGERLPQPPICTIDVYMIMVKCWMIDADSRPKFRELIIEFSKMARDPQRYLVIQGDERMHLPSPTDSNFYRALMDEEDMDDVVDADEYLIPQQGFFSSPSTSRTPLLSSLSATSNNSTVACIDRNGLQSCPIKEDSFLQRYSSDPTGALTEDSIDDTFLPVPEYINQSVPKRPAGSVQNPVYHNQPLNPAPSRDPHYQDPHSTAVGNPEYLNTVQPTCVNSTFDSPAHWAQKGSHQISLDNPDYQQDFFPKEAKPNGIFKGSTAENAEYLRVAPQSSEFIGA
# [7] = read-out: Talazoparib (BMN 673) / %Ctrl @ 10000nM
# [8] = read-out: Olaparib / %Ctrl @ 10000nM
# [9] = read-out: Rucaparib / %Ctrl @ 10000nM, binding competition, % of control
# [10] = read-out: Niraparib (MK-4827) / %Ctrl @ 10000nM
compound,measurement,setting,value
Cn1ncnc1[C@H]1c2n[nH]c(=O)c3cc(F)cc(c23)N[C@@H]1c1ccc(F)cc1 [Talazoparib],percent of control binding at 10 µM,[1]; [7],100%
same,percent of control binding at 10 µM,[2]; [7],100%
same,percent of control binding at 10 µM,[3]; [7],84%
same,percent of control binding at 10 µM,[4]; [7],100%
same,percent of control binding at 10 µM,[5]; [7],78%
same,percent of control binding at 10 µM,[6]; [7],98%
O=C(c1cc(Cc2n[nH]c(=O)c3ccccc23)ccc1F)N1CCN(C(=O)C2CC2)CC1 [Olaparib],percent of control binding at 10 µM,[1]; [8],100%
same,percent of control binding at 10 µM,[2]; [8],100%
same,percent of control binding at 10 µM,[3]; [8],89%
same,percent of control binding at 10 µM,[4]; [8],100%
same,percent of control binding at 10 µM,[5]; [8],96%
same,percent of control binding at 10 µM,[6]; [8],100%
CNCc1ccc(-c2[nH]c3cc(F)cc4c3c2CCNC4=O)cc1 [Rucaparib],percent of control binding at 10 µM,[1]; [9],100%
same,percent of control binding at 10 µM,[2]; [9],91%
same,percent of control binding at 10 µM,[3]; [9],0%
same,percent of control binding at 10 µM,[5]; [9],76%
same,percent of control binding at 10 µM,[6]; [9],100%
NC(=O)c1cccc2cn(-c3ccc([C@@H]4CCCNC4)cc3)nc12 [Niraparib],percent of control binding at 10 µM,[1]; [10],100%
same,percent of control binding at 10 µM,[2]; [10],84%
same,percent of control binding at 10 µM,[3]; [10],91%
same,percent of control binding at 10 µM,[4]; [10],92%
same,percent of control binding at 10 µM,[5]; [10],100%
same,percent of control binding at 10 µM,[6]; [10],93%
